According to ChEMBL document CHEMBL5150069, “Solid-Phase Synthesis of Cereblon-Recruiting Selective Histone Deacetylase 6 Degraders (HDAC6 PROTACs) with Antileukemic Activity” (J Med Chem, 2022):
Activity calls are given as the source filed them. No cut-off for these calls is given here.

What was measured:
[1] = target: T1, Protein deacetylase HDAC6 (Homo sapiens, UniProt Q9UBN7); test: Inhibition of recombinant full length N-terminal GST-tagged human HDAC6 (1 to 1215 residues) using Z-Lys(Ac)-AMC as substrate preincubated for 90 mins followed by trypsin addition and measured after 30 mins by fluorescence based microplate reader analysis
T1 sequence (Q9UBN7 whole entry): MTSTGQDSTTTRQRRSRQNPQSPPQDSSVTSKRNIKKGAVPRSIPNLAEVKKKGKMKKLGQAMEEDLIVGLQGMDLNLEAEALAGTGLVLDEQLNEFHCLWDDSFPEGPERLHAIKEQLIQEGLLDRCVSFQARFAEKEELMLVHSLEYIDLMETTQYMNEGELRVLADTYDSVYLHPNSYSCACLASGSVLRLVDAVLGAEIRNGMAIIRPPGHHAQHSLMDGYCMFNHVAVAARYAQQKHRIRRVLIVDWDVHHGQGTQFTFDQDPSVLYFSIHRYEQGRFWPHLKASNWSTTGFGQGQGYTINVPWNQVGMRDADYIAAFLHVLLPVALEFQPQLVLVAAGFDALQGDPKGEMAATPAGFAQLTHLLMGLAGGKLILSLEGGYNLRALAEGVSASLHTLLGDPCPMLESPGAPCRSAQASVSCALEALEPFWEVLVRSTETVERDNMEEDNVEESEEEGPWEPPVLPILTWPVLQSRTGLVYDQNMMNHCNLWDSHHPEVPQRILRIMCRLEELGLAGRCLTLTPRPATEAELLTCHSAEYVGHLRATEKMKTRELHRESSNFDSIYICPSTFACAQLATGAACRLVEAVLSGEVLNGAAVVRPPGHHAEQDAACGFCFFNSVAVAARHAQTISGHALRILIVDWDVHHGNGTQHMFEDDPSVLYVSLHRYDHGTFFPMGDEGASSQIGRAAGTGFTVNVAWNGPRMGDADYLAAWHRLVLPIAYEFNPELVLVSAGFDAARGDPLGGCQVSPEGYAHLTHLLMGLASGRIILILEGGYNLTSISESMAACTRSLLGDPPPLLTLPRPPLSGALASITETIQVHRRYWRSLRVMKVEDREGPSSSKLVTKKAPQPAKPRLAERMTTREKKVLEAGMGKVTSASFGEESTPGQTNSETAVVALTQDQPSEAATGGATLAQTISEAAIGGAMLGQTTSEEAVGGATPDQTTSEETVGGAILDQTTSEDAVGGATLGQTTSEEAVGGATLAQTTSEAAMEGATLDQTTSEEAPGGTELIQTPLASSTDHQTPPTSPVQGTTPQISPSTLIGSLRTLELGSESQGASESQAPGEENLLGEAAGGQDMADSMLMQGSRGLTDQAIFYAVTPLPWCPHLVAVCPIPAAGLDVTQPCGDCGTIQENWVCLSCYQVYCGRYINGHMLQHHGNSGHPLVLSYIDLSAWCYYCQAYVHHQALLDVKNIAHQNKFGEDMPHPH

Histone deacetylase 1 [2] = target: T2, Histone deacetylase 1 (Homo sapiens, UniProt Q13547); test: Inhibition of recombinant full length C-terminal His/Flag-tagged human HDAC1 (1 to 482 residues) using Z-Lys(Ac)-AMC as substrate preincubated for 90 mins followed by trypsin addition and measured after 30 mins by fluorescence based microplate reader analysis
T2 sequence (Q13547 whole entry, the tested form may be a part): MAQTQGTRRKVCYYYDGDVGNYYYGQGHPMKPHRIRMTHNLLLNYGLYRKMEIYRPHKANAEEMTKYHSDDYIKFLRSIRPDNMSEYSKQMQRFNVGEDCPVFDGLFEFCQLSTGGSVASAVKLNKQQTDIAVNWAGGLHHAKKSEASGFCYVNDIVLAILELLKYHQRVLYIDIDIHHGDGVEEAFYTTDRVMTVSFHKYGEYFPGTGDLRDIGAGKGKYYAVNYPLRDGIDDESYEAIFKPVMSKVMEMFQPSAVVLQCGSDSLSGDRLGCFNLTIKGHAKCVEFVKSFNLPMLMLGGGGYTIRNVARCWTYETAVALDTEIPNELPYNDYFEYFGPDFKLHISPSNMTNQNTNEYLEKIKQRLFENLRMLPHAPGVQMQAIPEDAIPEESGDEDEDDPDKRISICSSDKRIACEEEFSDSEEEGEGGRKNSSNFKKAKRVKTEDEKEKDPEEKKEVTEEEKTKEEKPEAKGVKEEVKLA

[3] = target: T3, Protein deacetylase HDAC6 (Homo sapiens) (UniProt Q9UBN7); test: Induction of HDAC6 degradation in human U-266 cells assessed as hyperacetylation of alpha-tubulin at 100 to 1000 nM incubated for 24 hrs by Western blot analysis; assay type: cell-based; settings: dose 100-1000 nM
T3 sequence (whole entry): T1 sequence (Q9UBN7 whole entry)

[4] = target: T1, Protein deacetylase HDAC6; test: Induction of HDAC6 degradation in human HL-60 cells assessed as hyperacetylation of alpha-tubulin after 6 hrs by Western immunoassay; assay type: cell-based
[5] = target: T3, Protein deacetylase HDAC6 (Homo sapiens); test: Induction of HDAC6 degradation in human U-266 cells at 100 to 1000 nM incubated for 24 hrs by Western blot analysis; assay type: cell-based; settings: dose 100-1000 nM
[6] = target: T3, Protein deacetylase HDAC6 (Homo sapiens); test: Induction of HDAC6 degradation in human HL-60 cells assessed as hyperacetylation of alpha-tubulin at 0.1 to 10 uM after 6 hrs by Western blot analysis; assay type: cell-based; settings: dose 0.1-10 µM
[7] = target: T3, Protein deacetylase HDAC6 (Homo sapiens); test: Induction of HDAC6 degradation in human HL-60 cells assessed as maximum degradation after 6 hrs by Western immunoassay; assay type: cell-based
[8] = target: T3, Protein deacetylase HDAC6 (Homo sapiens); test: Induction of Hitbit-fused HDAC6 degradation in human K562 cells at 1 uM after 5.5 to 7.5 hrs by NanoGlo HiBit lytic assay; assay type: cell-based; settings: time 5.5-7.5 hrs
[9] = target: T3, Protein deacetylase HDAC6 (Homo sapiens); test: Induction of HDAC6 degradation in human HL-60 cells at 0.1 to 10 uM after 6 hrs by Western blot analysis; assay type: cell-based; settings: dose 0.1-10 µM
[10] = target: T1, Protein deacetylase HDAC6; test: Induction of HDAC6 degradation in human HL-60 cells after 6 hrs by Western immunoassay; assay type: cell-based
MOLM-13 [11] = test: Induction of cell cycle arrest in human MOLM-13 cells assessed as increase in sub-G1 phase population incubated for 48 hrs by PI staining based flow cytometry analysis; assay type: functional; settings: dose 8-24 µM, DDE = dose-dependent effect
Histone deacetylase 1 [12] = target: T2, Histone deacetylase 1; test: Induction of HDAC1 degradation in human HL-60 cells assessed as hyperacetylation of histone H3 at 0.1 to 10 uM after 6 hrs by Western blot analysis; assay type: cell-based; settings: dose 0.1-10 µM
MOLM-13 [13] = test: Induction of cell cycle arrest in human MOLM-13 cells assessed as increase in sub-G1 phase population at 16 uM incubated for 48 hrs by PI staining based flow cytometry analysis (reference value: […]); assay type: functional
MOLM-13 [14] = test: Induction of cell cycle arrest in human MOLM-13 cells assessed as increase in sub-G1 phase population at 8 uM incubated for 48 hrs by PI staining based flow cytometry analysis (reference value: […]); assay type: functional
MOLM-13 [15] = test: Induction of apoptosis in human MOLM-13 cells after 48 hrs by Annexin-V and PI staining based flow cytometry assay; assay type: functional, cell-based; settings: dose 8-24 µM, DDE = dose-dependent effect
MOLM-13 [16] = test: Cytotoxicity against human MOLM-13 cells assessed as reduction in cell viability incubated for 72 hrs by ATP based Celltiter-glo luminescent assay; assay type: functional; settings: MOLM-13, 72 h
MOLM-13 [17] = test: Induction of cell cycle arrest in human MOLM-13 cells assessed as reduction in G2/M phase population incubated for 48 hrs by PI staining based flow cytometry analysis; assay type: functional; settings: dose 8-24 µM, DDE = dose-dependent effect
MOLM-13 [18] = test: Induction of cell cycle arrest in human MOLM-13 cells assessed as increase in sub-G1 phase population at 24 uM incubated for 48 hrs by PI staining based flow cytometry analysis (reference value: […]); assay type: functional
[19] = target: T3, Protein deacetylase HDAC6 (Homo sapiens); test: Induction of HDAC6 degradation in human HL-60 cells at 1 uM after 3 to 6 hrs by fluorescence microscopy analysis; assay type: cell-based; settings: time 3-6 hrs
[20] = target: T3, Protein deacetylase HDAC6 (Homo sapiens); test: Induction of HDAC6 degradation in human HL-60 cells assessed as hyperacetylation of histone H3 at 1 uM after 24 hrs; assay type: cell-based
[21] = target: T3, Protein deacetylase HDAC6 (Homo sapiens); test: Induction of HDAC6 degradation in human HL-60 cells at 100 nM after 3 hrs by fluorescence microscopy analysis; assay type: cell-based
[22] = target: T3, Protein deacetylase HDAC6 (Homo sapiens); test: Induction of HDAC6 degradation in human HL-60 cells at 100 nM after 6 hrs by fluorescence microscopy analysis; assay type: cell-based

Q: What does the source list for O=C(CCCCCCNC(=O)c1ccc(NC(=O)CCOCCOCCOCCOCCNC(=O)CNc2cccc3c2C(=O)N(C2CCC(=O)NC2=O)C3=O)cc1)NO (stereo not drawn)?
A: IC50 [1]: 15 nM; IC50 (Histone deacetylase 1 [2]): 186 nM

Q: How did the IC50 [1] turn out when Cc1nc2cc(NC(=O)CCOCCOCCOCCNC(=O)COc3cccc4c3C(=O)N(C3CCC(=O)NC3=O)C4=O)ccc2n1Cc1ccc(C(=O)NO)cc1F (stereo not drawn) was run?
A: 1310 nM

Q: What about the IC50 (Histone deacetylase 1 [2]) of the same molecule?
A: 1310 nM

Q: With Cc1nc2cc(NC(=O)CCCCCCCNC(=O)COc3cccc4c3C(=O)N(C3CCC(=O)NC3=O)C4=O)ccc2n1Cc1ccc(C(=O)NO)cc1F (stereo not drawn) as the molecule, how does the Activity [3] read?
A: Active

Q: What about the EC50 [4] of the same molecule?
A: 5450 nM

Q: What about the Activity [5] of the same molecule?
A: Active

Q: And the IC50 [1]?
A: 647 nM

Q: What about the Activity [6] of the same molecule?
A: Active

Q: What about the Emax [7] of the same molecule?
A: 92.8%

Q: And the Activity [8]?
A: Active

Q: What about the Activity [9] of the same molecule?
A: Active

Q: What about the DC50 [10] of the same molecule?
A: 19.4 nM

Q: What about the IC50 (Histone deacetylase 1 [2]) of the same molecule?
A: 647 nM

Q: What does the source list for Cc1nc2cc(NC(=O)CCOCCOCCOCCOCCNC(=O)COc3cccc4c3C(=O)N(C3CCC(=O)NC3=O)C4=O)ccc2n1Cc1ccc(C(=O)NO)cc1F (stereo not drawn)?
A: IC50 [1]: 1490 nM; IC50 (Histone deacetylase 1 [2]): 1490 nM

Q: O=C(CCCCCCNC(=O)c1ccc(NC(=O)CCOCCOCCOCCNC(=O)COc2cccc3c2C(=O)N(C2CCC(=O)NC2=O)C3=O)cc1)NO (stereo not drawn) was tested. Which IC50 [1] did it give?
A: 17 nM

Q: And the IC50 (Histone deacetylase 1 [2])?
A: 161 nM

Q: Cc1nc2cc(NC(=O)CCOCCOCCOCCOCCNC(=O)CNc3cccc4c3C(=O)N(C3CCC(=O)NC3=O)C4=O)ccc2n1Cc1ccc(C(=O)NO)cc1F (stereo not drawn) was tested. Which IC50 [1] did it give?
A: 1420 nM

Q: What about the IC50 (Histone deacetylase 1 [2]) of the same molecule?
A: 1420 nM

Q: Which results are given for O=C(CCCCCCNC(=O)c1ccc(NC(=O)CCOCCOCCOCCOCCNC(=O)COc2cccc3c2C(=O)N(C2CCC(=O)NC2=O)C3=O)cc1)NO (stereo not drawn)?
A: IC50 [1]: 20.8 nM; IC50 (Histone deacetylase 1 [2]): 208 nM

Q: What does the source list for O=C(CCCCCCNC(=O)c1ccc(NC(=O)COCCNC(=O)COc2cccc3c2C(=O)N(C2CCC(=O)NC2=O)C3=O)cc1)NO (stereo not drawn)?
A: IC50 [1]: 12 nM; IC50 (Histone deacetylase 1 [2]): 155 nM

Q: For O=C(CCCCCCNC(=O)c1ccc(NC(=O)COCCOCCNC(=O)COc2cccc3c2C(=O)N(C2CCC(=O)NC2=O)C3=O)cc1)NO (stereo not drawn), which Activity [9] is on record?
A: Active

Q: O=C(CCCCCCNC(=O)c1ccc(NC(=O)CCCCCCCNC(=O)COc2cccc3c2C(=O)N(C2CCC(=O)NC2=O)C3=O)cc1)NO (stereo not drawn) was tested. Which Activity (MOLM-13 [11]) did it give?
A: Dde

Q: What about the Activity [3] of the same molecule?
A: Active

Q: And the Activity (Histone deacetylase 1 [12])?
A: Active

Q: And the Activity (MOLM-13 [13])?
A: 9.9%

Q: What about the Activity (MOLM-13 [14]) of the same molecule?
A: 7.5%

Q: What about the Activity (MOLM-13 [15]) of the same molecule?
A: Dde

Q: What about the IC50 (MOLM-13 [16]) of the same molecule?
A: 17400 nM

Q: And the Activity [5]?
A: Active

Q: And the Activity [6]?
A: Active

Q: And the Activity (MOLM-13 [17])?
A: Dde

Q: What about the Activity (MOLM-13 [18]) of the same molecule?
A: 13.4%

Q: What about the Activity [19] of the same molecule?
A: Active

Q: And the Activity [20]?
A: Active

Q: What about the Emax [7] of the same molecule?
A: 84.5%

Q: And the Activity [21]?
A: Active

Q: What about the Activity [8] of the same molecule?
A: Active

Q: What about the Activity [9] of the same molecule?
A: Active

Q: What about the Activity [22] of the same molecule?
A: Active
